Data: patent US20090298820A1, “3-SUBSTITUTED-1H-PYRROLO[2,3-B]PYRIDINE AND 3-SUBSTITUTED-1H-PYRROLO[3,2-B]PYRIDINE COMPOUNDS, THEIR USE AS MTOR KINASE AND PI3 KINASE INHIBITORS, AND THEIR SYNTHESES” (Wyeth, priority 2008, published 2009)
pIC50: −log10 of the molar value. Read-outs that look alike come from different tables or passages of the source.

Key:
PI3Kα = PI3Kα (Homo sapiens, UniProt P42336); assay: PI3K-alpha fluorescence polarization assay; format: biochemical; details: read-out: PI3Kα Median IC50
PI3Kγ = PI3Kγ (Homo sapiens, UniProt P48736); assay: PI3K-gamma fluorescence polarization assay; format: biochemical; details: read-out: PI3Kγ Median IC50
mTOR = mTOR (Homo sapiens, UniProt P42345); assay: mTOR enzyme assay (DELFIA format, His6-S6K substrate); format: biochemical
[1] = read-out: mTOR Kinase Median IC50

PI3Kα, sequence (P42336 whole entry, species assumed): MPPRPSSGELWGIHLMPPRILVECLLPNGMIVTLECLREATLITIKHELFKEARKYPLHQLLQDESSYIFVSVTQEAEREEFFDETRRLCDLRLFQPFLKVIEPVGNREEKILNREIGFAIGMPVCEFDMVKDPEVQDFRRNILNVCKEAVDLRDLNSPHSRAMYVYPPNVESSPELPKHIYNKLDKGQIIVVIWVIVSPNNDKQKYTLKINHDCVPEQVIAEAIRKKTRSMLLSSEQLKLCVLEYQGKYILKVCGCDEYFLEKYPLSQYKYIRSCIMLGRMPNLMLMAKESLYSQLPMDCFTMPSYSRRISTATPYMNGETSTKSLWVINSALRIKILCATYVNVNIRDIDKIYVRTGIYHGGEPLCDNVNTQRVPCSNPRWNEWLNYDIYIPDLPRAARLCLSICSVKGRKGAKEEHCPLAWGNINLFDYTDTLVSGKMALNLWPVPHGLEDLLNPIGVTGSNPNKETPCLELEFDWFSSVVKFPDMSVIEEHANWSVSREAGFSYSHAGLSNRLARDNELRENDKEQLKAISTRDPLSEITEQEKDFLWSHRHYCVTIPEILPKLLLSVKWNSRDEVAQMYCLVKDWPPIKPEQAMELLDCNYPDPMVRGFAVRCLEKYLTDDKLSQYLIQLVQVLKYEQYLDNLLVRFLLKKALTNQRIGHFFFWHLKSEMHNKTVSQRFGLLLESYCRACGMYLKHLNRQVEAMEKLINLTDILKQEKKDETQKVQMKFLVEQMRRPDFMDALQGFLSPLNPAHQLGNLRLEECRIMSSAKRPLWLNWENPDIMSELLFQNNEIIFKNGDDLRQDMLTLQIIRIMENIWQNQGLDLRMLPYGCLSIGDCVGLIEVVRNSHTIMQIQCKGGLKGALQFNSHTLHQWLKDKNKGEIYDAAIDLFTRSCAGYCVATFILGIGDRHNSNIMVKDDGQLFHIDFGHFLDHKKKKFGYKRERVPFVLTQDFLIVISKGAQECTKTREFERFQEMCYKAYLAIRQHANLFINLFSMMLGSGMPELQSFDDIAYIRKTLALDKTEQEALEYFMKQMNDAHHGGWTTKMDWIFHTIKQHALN
PI3Kα, sequence (P27986 whole entry partner, species assumed): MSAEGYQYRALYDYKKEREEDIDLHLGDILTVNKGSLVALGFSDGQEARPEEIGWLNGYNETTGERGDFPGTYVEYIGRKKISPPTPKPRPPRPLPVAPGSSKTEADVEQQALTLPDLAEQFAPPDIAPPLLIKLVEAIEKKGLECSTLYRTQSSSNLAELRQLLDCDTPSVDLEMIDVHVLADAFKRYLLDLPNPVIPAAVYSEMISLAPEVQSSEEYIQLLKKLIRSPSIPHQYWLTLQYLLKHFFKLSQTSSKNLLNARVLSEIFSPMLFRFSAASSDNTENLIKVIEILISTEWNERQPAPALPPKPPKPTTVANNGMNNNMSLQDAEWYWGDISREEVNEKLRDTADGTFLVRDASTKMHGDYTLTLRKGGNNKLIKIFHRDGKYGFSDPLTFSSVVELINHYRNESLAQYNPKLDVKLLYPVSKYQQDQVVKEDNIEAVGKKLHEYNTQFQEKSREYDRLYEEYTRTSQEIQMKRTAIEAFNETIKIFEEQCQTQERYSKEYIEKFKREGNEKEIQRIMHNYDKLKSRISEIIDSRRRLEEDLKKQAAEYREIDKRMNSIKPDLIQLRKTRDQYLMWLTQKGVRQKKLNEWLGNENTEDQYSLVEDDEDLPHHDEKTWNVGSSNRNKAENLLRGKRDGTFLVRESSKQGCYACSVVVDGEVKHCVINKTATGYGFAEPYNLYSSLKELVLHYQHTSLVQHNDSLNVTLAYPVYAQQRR
PI3Kγ, sequence (P48736 whole entry, species assumed): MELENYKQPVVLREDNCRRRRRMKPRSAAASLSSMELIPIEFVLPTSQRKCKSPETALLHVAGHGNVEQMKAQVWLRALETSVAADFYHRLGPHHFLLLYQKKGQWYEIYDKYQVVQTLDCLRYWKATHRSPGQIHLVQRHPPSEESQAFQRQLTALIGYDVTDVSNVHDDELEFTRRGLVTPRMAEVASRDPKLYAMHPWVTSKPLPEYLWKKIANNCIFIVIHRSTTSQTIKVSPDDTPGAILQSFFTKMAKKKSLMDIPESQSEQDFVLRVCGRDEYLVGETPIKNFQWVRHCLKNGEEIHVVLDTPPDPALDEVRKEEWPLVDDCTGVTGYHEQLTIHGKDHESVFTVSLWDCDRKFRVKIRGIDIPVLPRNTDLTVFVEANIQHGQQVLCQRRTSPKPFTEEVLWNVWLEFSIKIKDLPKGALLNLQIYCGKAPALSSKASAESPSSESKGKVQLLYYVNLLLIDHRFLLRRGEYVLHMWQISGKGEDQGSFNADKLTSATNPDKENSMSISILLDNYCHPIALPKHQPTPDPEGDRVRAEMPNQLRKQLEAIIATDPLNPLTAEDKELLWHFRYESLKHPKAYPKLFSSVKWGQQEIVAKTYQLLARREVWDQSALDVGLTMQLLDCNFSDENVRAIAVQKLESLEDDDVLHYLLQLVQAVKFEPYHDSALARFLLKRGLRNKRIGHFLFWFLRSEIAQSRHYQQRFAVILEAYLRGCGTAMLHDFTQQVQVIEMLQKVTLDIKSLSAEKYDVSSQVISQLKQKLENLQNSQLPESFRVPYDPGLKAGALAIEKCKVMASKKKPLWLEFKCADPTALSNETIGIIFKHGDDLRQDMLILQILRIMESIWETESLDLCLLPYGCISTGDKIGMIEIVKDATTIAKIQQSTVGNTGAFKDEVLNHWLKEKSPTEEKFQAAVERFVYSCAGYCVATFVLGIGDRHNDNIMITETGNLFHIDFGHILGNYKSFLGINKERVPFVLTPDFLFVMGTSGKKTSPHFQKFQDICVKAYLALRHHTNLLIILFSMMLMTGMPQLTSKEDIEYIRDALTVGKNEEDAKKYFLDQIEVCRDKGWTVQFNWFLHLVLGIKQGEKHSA

Compound	pIC50 (PI3Kα)	pIC50 (PI3Kγ)	pIC50 (mTOR; [1])	melting point	pIC50 (mTOR)
CN1CC2CC1CN2C(=O)C1CCN(c2ccnc3c2c(/C=C2\Oc4ccc(NC(=O)Nc5cccnc5)cc4C2=O)cn3C)CC1 (stereo not drawn) [Compound 272, 1-{(2Z)-2-[(1-methyl-4-{4-[(5-methyl-2,5-diazabicyclo[2.2.1]hept-2-yl)carbonyl]piperidin-1-yl}-1H-pyrrolo[2,3-b]pyridin-3-yl)methylidene]-3-oxo-2,3-dihydro-1-benzofuran-5-yl}-3-pyridin-3-ylurea]	< 5.00	5.62	7.72	151 to 164 °C	
Cn1cc(/C=C2\Oc3ccc(NC(=O)Nc4cccnc4)cc3C2=O)c2c(N3C4CCCC3COC4)ccnc21 [Compound 276, 1-[(2Z)-2-{[1-methyl-4-(3-oxa-9-azabicyclo[3.3.1]non-9-yl)-1H-pyrrolo[2,3-b]pyridin-3-yl]methylidene}-3-oxo-2,3-dihydro-1-benzofuran-5-yl]-3-pyridin-3-ylurea]	5.65	5.95	7.50	240 to 245 °C (dec.)	
Cn1cc(/C=C2\Oc3ccc(NC(=O)Nc4cccnc4)cc3C2=O)c2c(N3CC4CCC3CO4)ccnc21 (stereo not drawn) [Compound 277, 1-[(2Z)-2-{[1-methyl-4-(2-oxa-5-azabicyclo[2.2.2]oct-5-yl)-1H-pyrrolo[2,3-b]pyridin-3-yl]methylidene}-3-oxo-2,3-dihydro-1-benzofuran-5-yl]-3-pyridin-3-ylurea]	6.53	5.59	8.12	227 to 235 °C	
CNC(=O)Nc1ccc2c(c1)C(=O)/C(=C/c1cn(C)c3nccc(N4CC5CCC4CO5)c13)O2 (stereo not drawn) [Compound 279, 1-methyl-3-[(2Z)-2-{[1-methyl-4-(2-oxa-5-azabicyclo[2.2.2]oct-5-yl)-1H-pyrrolo[2,3-b]pyridin-3-yl]methylidene}-3-oxo-2,3-dihydro-1-benzofuran-5-yl]urea]	6.89	6.19	7.96	197 to 205 °C (dec.)	
Cn1cc(/C=C2\Oc3ccc(NC(=O)Nc4cccnc4)cc3C2=O)c2c(N3C4CCC3COC4)ccnc21 [Compound 280, 1-[(2Z)-2-{[1-methyl-4-(3-oxa-8-azabicyclo[3.2.1]oct-8-yl)-1H-pyrrolo[2,3-b]pyridin-3-yl]methylidene}-3-oxo-2,3-dihydro-1-benzofuran-5-yl]-3-pyridin-3-ylurea]	6.75	6.00		250 to 255 °C (dec.)	7.38
CNC(=O)Nc1ccc2c(c1)C(=O)/C(=C/c1cn(C)c3nccc(N4C5CCC4COC5)c13)O2 [Compound 281, 1-methyl-3-[(2Z)-2-{[1-methyl-4-(3-oxa-8-azabicyclo[3.2.1]oct-8-yl)-1H-pyrrolo[2,3-b]pyridin-3-yl]methylidene}-3-oxo-2,3-dihydro-1-benzofuran-5-yl]urea]	6.98	5.77	7.51	226 to 232 °C (dec.)	
Cn1cc(/C=C2\Oc3ccc(NC(=O)Nc4cccnc4)cc3C2=O)c2c(N3CC4COC(C3)O4)ccnc21 (stereo not drawn) [Compound 282, 1-[(2Z)-2-{[4-(6,8-dioxa-3-azabicyclo[3.2.1]oct-3-yl)-1-methyl-1H-pyrrolo[2,3-b]pyridin-3-yl]methylidene}-3-oxo-2,3-dihydro-1-benzofuran-5-yl]-3-pyridin-3-ylurea]	6.54	6.19	7.68	224 to 227 °C (dec.)	
Cn1cc(/C=C2\Oc3ccc(NC(=O)Nc4cccnc4)cc3C2=O)c2c(N3CC4CC3CO4)ccnc21 (stereo not drawn) [Compound 283, 1-[(2Z)-2-{[1-methyl-4-(2-oxa-5-azabicyclo[2.2.1]hept-5-yl)-1H-pyrrolo[2,3-b]pyridin-3-yl]methylidene}-3-oxo-2,3-dihydro-1-benzofuran-5-yl]-3-pyridin-3-ylurea]	6.46	6.11	7.57	218 to 222 °C (dec.)	
CNC(=O)Nc1ccc2c(c1)C(=O)/C(=C/c1cn(C)c3nccc(N4CC5CC4CO5)c13)O2 (stereo not drawn) [Compound 284, 1-methyl-3-[(2Z)-2-{[1-methyl-4-(2-oxa-5-azabicyclo[2.2.1]hept-5-yl)-1H-pyrrolo[2,3-b]pyridin-3-yl]methylidene}-3-oxo-2,3-dihydro-1-benzofuran-5-yl]urea]	6.56	6.14	7.30	242 to 247 °C (dec.)	
Cn1cc(/C=C2\Oc3ccc(NC(=O)Nc4cccnc4)cc3C2=O)c2c(N3CCC(C(=O)N4C5CCC4COC5)CC3)ccnc21 [Compound 292, 1-[(2Z)-2-({1-methyl-4-[4-(3-oxa-8-azabicyclo[3.2.1]oct-8-ylcarbonyl)piperidin-1-yl]-1H-pyrrolo[2,3-b]pyridin-3-yl}methylidene)-3-oxo-2,3-dihydro-1-benzofuran-5-yl]-3-pyridin-3-ylurea]	5.46	< 5.00	8.27	197 to 203 °C	
Cn1cc(/C=C2\Oc3ccc(NC(=O)Nc4cccnc4)cc3C2=O)c2c(N3CC4CNCC(C3)O4)ccnc21 [Compound 293, 1-[(2Z)-2-{[1-methyl-4-(9-oxa-3,7-diazabicyclo[3.3.1]non-3-yl)-1H-pyrrolo[2,3-b]pyridin-3-yl]methylidene}-3-oxo-2,3-dihydro-1-benzofuran-5-yl]-3-pyridin-3-ylurea]	< 5.00	6.06	6.52	193 to 200 °C	
CCC1(CC)CN(c2ccnc3c2c(/C=C2\Oc4ccc(NC(=O)Nc5cccnc5)cc4C2=O)cn3C)CCO1 [Compound 295, 1-[(2Z)-2-{[4-(2,2-diethylmorpholin-4-yl)-1-methyl-1H-pyrrolo[2,3-b]pyridin-3-yl]methylidene}-3-oxo-2,3-dihydro-1-benzofuran-5-yl]-3-pyridin-3-ylurea]	6.14	5.91	7.67	225 to 228 °C	
C[C@@H]1CN(c2ccnc3c2c(/C=C2\Oc4ccc(NC(=O)Nc5cccnc5)cc4C2=O)cn3C)C[C@H](C)O1 [Compound 296, 1-[(2Z)-2-({4-[(2R,6S)-2,6-dimethylmorpholin-4-yl]-1-methyl-1H-pyrrolo[2,3-b]pyridin-3-yl}methylidene)-3-oxo-2,3-dihydro-1-benzofuran-5-yl]-3-pyridin-3-ylurea]	6.62	5.93	7.72	255 to 260 °C	
COCCC1CN(c2ccnc3c2c(/C=C2\Oc4ccc(NC(=O)Nc5cccnc5)cc4C2=O)cn3C)CCO1 (stereo not drawn) [Compound 297, 1-[(2Z)-2-({4-[2-(2-methoxyethyl)morpholin-4-yl]-1-methyl-1H-pyrrolo[2,3-b]pyridin-3-yl}methylidene)-3-oxo-2,3-dihydro-1-benzofuran-5-yl]-3-pyridin-3-ylurea]	6.05	5.71	7.59	225 to 260 °C	
Cn1cc(/C=C2\Oc3ccc(NC(=O)Nc4cccnc4)cc3C2=O)c2c(N3CCOC(C)(C)C3)ccnc21 [Compound 301, 1-[(2Z)-2-{[4-(2,2-dimethylmorpholin-4-yl)-1-methyl-1H-pyrrolo[2,3-b]pyridin-3-yl]methylidene}-3-oxo-2,3-dihydro-1-benzofuran-5-yl]-3-pyridin-3-ylurea]	6.25	5.95	7.89	222 to 226 °C	
